Measurements as given in ChEMBL document CHEMBL5465560, “Selectivity Literature for EUbOPEN Chemogenomic Library” (2024).

Tests used:
[1] = biological target: T1, N-lysine methyltransferase KMT5A (Homo sapiens) (UniProt Q9NQR1); conditions: at 10 µM
T1 sequence (whole entry): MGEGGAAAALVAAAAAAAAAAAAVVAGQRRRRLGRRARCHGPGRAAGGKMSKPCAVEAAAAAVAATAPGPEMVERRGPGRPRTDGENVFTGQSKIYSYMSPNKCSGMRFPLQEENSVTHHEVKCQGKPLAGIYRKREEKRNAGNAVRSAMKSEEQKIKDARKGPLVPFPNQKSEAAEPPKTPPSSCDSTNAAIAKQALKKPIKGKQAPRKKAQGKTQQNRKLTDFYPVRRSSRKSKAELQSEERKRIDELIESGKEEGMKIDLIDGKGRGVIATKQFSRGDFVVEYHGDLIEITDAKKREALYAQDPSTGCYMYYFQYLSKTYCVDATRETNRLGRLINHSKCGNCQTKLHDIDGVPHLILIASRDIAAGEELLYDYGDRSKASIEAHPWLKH

[2] = biological target: Mitogen-activated protein kinase 8 (Homo sapiens, UniProt P45983); assay: Selectivity interaction (Kinase panel (KiNativ target engagement assay in Jurkat cells)) EUB0001635a MAPK8; assay type: cell-based; conditions: at 1 µM
Mitogen-activated protein kinase 8, sequence (P45983 whole entry): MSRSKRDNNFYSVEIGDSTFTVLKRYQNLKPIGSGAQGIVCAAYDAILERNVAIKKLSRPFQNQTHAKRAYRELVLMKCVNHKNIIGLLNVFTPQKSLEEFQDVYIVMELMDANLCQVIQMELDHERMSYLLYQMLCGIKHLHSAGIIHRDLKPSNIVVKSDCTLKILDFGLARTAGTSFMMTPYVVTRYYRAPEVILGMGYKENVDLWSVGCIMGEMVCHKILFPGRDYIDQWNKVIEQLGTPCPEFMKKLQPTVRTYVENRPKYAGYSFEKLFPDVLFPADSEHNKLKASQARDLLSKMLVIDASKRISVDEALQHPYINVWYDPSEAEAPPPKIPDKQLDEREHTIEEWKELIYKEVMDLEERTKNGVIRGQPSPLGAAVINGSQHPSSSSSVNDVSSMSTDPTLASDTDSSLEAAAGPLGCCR

[3] = biological target: T2, Serine/threonine-protein kinase 17B (Homo sapiens) (UniProt O94768); assay: Selectivity interaction (Kinase panel (DSF assay)) EUB0001559a STK17B
T2 sequence (whole entry): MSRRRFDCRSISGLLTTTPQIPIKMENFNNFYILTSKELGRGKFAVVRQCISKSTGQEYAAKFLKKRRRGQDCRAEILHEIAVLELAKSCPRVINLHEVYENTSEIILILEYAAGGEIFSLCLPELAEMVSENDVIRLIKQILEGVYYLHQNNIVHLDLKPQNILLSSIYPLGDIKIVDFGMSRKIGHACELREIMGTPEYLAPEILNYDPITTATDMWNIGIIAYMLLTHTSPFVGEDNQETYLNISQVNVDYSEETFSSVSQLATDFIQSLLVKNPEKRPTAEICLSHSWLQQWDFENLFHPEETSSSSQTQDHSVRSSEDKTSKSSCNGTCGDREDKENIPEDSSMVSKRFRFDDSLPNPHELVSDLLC

[4] = biological target: MAP kinase-interacting serine/threonine-protein kinase 2 (Homo sapiens, UniProt Q9HBH9); assay: Selectivity interaction (KinomeScan (DiscoverX)) EUB0000595a MKNK2; conditions: at 10 µM
MAP kinase-interacting serine/threonine-protein kinase 2, sequence (Q9HBH9 whole entry, looked up): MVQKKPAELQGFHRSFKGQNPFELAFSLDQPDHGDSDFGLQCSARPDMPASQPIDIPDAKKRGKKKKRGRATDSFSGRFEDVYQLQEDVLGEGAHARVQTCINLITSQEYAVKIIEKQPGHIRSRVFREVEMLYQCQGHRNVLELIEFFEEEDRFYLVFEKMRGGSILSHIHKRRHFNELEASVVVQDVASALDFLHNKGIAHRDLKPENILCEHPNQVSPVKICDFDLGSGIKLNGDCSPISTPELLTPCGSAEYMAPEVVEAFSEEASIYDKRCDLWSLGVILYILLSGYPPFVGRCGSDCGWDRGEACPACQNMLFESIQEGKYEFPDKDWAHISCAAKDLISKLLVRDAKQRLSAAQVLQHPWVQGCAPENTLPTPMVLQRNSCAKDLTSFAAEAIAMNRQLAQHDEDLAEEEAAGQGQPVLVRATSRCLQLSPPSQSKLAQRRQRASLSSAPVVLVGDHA

[5] = biological target: Mitogen-activated protein kinase kinase kinase 11 (Homo sapiens) (UniProt Q16584); assay: Selectivity interaction (KinomeScan (DiscoverX)) EUB0000618a MAP3K11; conditions: at 10 µM
[6] = biological target: Protein-tyrosine kinase 2-beta (Homo sapiens) (UniProt Q14289); assay: Selectivity interaction (KinomeScan (DiscoverX)) EUB0000695a PTK2B; conditions: at 100 nM
Protein-tyrosine kinase 2-beta (Homo sapiens), sequence (Q14289 whole entry, looked up): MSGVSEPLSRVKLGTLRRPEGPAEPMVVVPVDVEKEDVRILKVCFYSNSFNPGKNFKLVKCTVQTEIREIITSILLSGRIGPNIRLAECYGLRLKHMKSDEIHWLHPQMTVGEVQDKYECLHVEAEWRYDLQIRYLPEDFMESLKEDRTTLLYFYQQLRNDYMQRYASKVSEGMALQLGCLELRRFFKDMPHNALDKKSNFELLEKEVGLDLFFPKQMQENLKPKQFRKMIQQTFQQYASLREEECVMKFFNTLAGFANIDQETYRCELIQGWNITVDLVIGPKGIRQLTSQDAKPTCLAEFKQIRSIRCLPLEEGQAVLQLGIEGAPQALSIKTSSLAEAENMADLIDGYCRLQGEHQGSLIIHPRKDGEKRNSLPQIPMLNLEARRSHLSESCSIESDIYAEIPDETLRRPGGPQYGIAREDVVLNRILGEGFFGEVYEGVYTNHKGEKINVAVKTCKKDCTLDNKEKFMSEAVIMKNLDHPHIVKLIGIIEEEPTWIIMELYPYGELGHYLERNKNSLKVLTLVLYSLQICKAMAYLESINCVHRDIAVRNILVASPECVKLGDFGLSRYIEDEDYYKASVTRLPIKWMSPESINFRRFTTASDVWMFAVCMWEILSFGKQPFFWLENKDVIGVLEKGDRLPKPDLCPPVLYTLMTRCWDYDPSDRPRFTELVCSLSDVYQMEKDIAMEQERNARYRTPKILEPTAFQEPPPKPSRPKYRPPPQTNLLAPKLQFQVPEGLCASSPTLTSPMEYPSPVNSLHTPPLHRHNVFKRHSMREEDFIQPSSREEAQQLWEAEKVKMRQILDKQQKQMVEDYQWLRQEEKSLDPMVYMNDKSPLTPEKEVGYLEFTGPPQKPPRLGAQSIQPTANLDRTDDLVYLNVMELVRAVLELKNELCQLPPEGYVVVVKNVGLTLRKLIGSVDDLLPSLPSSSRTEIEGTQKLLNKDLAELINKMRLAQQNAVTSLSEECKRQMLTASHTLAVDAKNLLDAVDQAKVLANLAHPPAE

[7] = biological target: Leukocyte tyrosine kinase receptor (Homo sapiens, UniProt P29376); assay: Selectivity interaction (KinomeScan (DiscoverX)) EUB0000607a LTK; conditions: at 10 µM
Leukocyte tyrosine kinase receptor, sequence (P29376 whole entry): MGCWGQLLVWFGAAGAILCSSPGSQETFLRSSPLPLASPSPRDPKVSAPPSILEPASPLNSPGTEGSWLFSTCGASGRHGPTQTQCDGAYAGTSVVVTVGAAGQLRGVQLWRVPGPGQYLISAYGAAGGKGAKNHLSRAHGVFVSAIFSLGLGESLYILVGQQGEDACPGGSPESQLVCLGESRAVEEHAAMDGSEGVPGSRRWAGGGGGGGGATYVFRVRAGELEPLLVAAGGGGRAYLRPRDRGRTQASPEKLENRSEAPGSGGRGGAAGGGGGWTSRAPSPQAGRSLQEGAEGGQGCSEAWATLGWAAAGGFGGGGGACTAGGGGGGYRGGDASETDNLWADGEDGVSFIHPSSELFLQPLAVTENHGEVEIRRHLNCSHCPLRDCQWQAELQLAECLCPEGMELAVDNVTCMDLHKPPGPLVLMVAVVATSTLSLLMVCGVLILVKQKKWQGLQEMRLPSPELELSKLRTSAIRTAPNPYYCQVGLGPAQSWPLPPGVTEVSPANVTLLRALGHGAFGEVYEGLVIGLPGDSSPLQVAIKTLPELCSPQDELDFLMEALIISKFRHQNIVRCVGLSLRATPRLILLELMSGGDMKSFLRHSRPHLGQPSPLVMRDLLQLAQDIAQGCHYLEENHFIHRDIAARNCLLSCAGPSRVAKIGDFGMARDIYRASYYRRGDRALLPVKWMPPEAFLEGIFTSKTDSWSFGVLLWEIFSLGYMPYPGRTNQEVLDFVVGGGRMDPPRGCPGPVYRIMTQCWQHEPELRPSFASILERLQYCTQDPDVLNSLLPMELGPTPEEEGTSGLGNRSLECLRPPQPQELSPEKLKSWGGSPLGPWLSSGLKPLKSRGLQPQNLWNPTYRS

[8] = biological target: Mitogen-activated protein kinase 7 (Homo sapiens) (UniProt Q13164); assay: Selectivity interaction (Rxn Biology Kinase assay) EUB0001632a MAPK7; conditions: at 10 µM
[9] = biological target: T3, Myosin-IIIb (Homo sapiens) (UniProt Q8WXR4); assay: Selectivity interaction (LanthaScreen Eu Kinase Binding Assay) EUB0001632a MYO3B; conditions: at 10 µM
T3 sequence (whole entry): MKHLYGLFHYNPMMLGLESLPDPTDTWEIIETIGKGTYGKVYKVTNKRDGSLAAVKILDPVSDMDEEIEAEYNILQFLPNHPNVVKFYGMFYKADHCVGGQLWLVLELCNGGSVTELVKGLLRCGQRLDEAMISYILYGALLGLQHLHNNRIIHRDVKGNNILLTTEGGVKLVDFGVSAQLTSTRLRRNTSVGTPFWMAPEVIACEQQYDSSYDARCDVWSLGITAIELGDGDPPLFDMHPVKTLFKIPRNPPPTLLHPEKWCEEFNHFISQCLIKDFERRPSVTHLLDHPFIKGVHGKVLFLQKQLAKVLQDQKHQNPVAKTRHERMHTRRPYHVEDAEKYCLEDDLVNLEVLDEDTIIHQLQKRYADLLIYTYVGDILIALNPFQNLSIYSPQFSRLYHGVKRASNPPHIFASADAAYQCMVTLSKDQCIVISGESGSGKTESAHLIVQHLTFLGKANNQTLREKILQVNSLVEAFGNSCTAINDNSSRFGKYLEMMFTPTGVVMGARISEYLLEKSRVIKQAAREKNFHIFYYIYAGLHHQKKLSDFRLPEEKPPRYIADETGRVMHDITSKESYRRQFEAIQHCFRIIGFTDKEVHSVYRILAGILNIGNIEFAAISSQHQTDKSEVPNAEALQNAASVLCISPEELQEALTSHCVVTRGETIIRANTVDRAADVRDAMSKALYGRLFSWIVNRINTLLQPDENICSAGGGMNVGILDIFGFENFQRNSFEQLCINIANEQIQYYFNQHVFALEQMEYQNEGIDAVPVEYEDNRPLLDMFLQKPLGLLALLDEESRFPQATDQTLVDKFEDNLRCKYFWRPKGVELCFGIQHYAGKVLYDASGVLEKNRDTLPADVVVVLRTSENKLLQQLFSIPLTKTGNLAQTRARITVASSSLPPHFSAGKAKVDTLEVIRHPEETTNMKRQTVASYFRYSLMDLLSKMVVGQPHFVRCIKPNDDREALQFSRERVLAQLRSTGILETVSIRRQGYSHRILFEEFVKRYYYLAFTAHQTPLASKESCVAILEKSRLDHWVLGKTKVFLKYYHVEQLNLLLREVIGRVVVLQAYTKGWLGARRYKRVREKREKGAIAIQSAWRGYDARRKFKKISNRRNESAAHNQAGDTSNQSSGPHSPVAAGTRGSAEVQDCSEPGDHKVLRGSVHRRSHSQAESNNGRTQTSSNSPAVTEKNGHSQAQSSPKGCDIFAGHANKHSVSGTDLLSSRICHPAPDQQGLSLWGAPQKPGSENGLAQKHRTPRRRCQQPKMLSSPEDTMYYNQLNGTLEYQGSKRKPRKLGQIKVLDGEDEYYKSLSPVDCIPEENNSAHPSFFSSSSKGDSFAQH

CDK1/Cyclin A = CDK1/Cyclin A (Homo sapiens, UniProt P06493+P20248+P78396); assay: Selectivity interaction (Enzymatic assay (Reaction Biology)) EUB0001632a CDK1; assay type: protein-complex assay
[10] = tested on: Fibroblast growth factor receptor 3 (Homo sapiens), P22607 [K650E]; assay: (§1) Selectivity interaction (ProQinase) EUB0000171b FGFR3
Fibroblast growth factor receptor 3 (Homo sapiens), P22607 [K650E], sequence (P22607 whole entry K650E): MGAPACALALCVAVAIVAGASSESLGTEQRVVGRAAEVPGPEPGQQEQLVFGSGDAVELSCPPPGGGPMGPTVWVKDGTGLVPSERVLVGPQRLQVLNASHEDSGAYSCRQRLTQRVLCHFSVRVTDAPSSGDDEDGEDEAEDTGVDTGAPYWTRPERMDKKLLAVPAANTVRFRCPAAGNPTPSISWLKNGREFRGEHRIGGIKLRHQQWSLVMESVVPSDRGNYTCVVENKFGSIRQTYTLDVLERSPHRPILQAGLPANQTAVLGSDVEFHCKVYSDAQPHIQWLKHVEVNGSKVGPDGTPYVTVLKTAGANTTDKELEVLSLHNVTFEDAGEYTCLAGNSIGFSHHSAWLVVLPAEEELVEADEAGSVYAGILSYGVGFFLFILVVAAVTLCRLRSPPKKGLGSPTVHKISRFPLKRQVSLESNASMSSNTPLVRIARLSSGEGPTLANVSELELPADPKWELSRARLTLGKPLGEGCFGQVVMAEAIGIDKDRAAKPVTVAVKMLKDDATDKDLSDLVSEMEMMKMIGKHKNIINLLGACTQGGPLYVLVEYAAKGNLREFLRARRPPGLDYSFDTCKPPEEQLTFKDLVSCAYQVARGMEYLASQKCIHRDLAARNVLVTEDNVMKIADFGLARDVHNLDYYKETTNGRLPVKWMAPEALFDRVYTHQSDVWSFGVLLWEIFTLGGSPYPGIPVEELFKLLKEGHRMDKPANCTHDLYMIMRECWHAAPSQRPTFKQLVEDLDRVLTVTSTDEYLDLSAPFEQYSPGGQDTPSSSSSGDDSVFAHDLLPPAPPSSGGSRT

[11] = tested on: Fibroblast growth factor receptor 3 (Homo sapiens), P22607 [G697C]; assay: as §1
Fibroblast growth factor receptor 3 (Homo sapiens), P22607 [G697C], sequence (P22607 whole entry G697C): as the sequence (P22607 whole entry K650E) above, with E650K, G697C counted along it

[12] = tested on: Fibroblast growth factor receptor 3 (Homo sapiens), P22607 [K650M]; assay: as §1
Fibroblast growth factor receptor 3 (Homo sapiens), P22607 [K650M], sequence (P22607 whole entry K650M): as the sequence (P22607 whole entry K650E) above, with E650M counted along it

[13] = biological target: Fibroblast growth factor receptor 3 (Homo sapiens, UniProt P22607); assay: as §1
Fibroblast growth factor receptor 3, sequence (P22607 23-806 limits assumed): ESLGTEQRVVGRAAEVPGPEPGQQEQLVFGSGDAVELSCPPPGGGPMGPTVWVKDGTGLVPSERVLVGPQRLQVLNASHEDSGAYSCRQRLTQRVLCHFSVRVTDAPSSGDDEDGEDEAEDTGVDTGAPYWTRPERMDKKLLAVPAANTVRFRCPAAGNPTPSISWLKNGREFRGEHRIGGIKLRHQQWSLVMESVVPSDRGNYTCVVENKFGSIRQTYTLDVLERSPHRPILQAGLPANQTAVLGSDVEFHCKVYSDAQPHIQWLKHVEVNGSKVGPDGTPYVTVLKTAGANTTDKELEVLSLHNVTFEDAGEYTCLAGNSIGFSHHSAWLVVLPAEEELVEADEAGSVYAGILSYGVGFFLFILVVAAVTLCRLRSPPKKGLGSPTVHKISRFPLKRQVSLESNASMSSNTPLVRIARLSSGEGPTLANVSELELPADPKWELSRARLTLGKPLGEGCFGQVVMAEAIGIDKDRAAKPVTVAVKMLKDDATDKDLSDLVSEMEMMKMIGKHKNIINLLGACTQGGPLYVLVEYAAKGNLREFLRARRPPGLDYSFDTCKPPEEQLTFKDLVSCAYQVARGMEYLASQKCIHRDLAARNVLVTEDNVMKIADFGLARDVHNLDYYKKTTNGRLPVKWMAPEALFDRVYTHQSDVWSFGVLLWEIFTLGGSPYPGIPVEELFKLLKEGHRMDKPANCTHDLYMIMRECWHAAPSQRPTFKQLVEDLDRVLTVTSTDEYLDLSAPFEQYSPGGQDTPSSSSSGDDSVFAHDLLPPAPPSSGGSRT

SMILES: CNCCN1CCC(c2cc(CN(C)C(=O)c3cccc(Oc4ccccc4)c3)ccn2)CC1
- % activity [1]: > 90%

SMILES: C=CC(=O)Nc1ccc(C(=O)Nc2[nH]nc3c2CN(C(=O)N[C@H](CN(C)C)c2ccccc2)C3(C)C)cc1
- % of engagement [2]: -7.2%

SMILES: CN(C(=O)c1cnn2cccnc12)c1cc2c(cc1N1CCOCC1)C(=O)N(C[C@@H](F)C(C)(C)O)C2
- dTM [3]: 1 K

SMILES: COCC(=O)NC/C=C/c1ccc2ncnc(Nc3ccc(Oc4ccc(C)nc4)c(C)c3)c2c1 [CP-724714]
- % of control [4]: 1.4%

SMILES: O[C@H]1CC[C@H](Nc2ncc3nc(Nc4c(F)cc(F)cc4F)n([C@H]4CCOC4)c3n2)CC1
- % of control [5]: 100%

SMILES: Cc1cc(F)c(C(=O)Nc2cccc(-c3nncn3C(C)C)n2)cc1-n1cnc(C2CC2)c1
- % of control [6]: 100%

SMILES: CNC(=O)Nc1ccc(-c2nc(N3CC4CCC(C3)O4)c3cnn(C4CCC5(CC4)OCCO5)c3n2)cc1
- % of control [7]: 68%

SMILES: Cn1cc(-n2cnc3c(NCc4nc5cc(Cl)c(Cl)cc5[nH]4)nc(N4CCOCC4)nc32)cn1
- % of inhibition [8]: -29.8%
- % of inhibition [9]: -8.99%
- IC50 (CDK1/Cyclin A): > 10 µM

SMILES: C=CC(=O)Nc1cccc(C(=O)Nc2ccc(Nc3cc(-c4[nH]c(SC)nc4C)ccn3)cc2)c1
- % of control ([10]; at 1 µM): 104%
- % of control ([10]; at 5 µM): 79%
- % of control ([11]; at 1 µM): 103%
- % of control ([11]; at 5 µM): 83%
- % of control ([12]; at 1 µM): 97%
- % of control ([12]; at 5 µM): 72%
- % of control ([13]; at 1 µM): 98%
- % of control ([13]; at 5 µM): 78%
